Laboratory results from patent US20230382925A1, “MODULATORS OF CYSTIC FIBROSIS TRANSMEMBRANE CONDUCTANCE REGULATOR” (VERTEX PHARMACEUTICALS INCORPORATED, priority 2020, published 2023).
Where two headings read alike, the source gives them in different places.

Target: CFTR (Homo sapiens, UniProt P13569)
Assay: Membrane Potential Dye, Enteroid Assay B
Format: cell-based
In short: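 Activity given as % of a triple-combination reference (1 μM and 3 μM correctors, 300 nM acute potentiator). Enteroids were preincubated 18-24 h with compound; chloride efflux then measured 15 min by methyl oxonol fluorescence after forskolin/IBMX/Compound III stimulation in chloride-free buffer containing CaCCinh-A01 and Chicago Sky Blue.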

[1] = Table 10, read-out: Ent. B EC50

Sequence of CFTR (P13569 with tags, fused parts or gaps DEL508-508): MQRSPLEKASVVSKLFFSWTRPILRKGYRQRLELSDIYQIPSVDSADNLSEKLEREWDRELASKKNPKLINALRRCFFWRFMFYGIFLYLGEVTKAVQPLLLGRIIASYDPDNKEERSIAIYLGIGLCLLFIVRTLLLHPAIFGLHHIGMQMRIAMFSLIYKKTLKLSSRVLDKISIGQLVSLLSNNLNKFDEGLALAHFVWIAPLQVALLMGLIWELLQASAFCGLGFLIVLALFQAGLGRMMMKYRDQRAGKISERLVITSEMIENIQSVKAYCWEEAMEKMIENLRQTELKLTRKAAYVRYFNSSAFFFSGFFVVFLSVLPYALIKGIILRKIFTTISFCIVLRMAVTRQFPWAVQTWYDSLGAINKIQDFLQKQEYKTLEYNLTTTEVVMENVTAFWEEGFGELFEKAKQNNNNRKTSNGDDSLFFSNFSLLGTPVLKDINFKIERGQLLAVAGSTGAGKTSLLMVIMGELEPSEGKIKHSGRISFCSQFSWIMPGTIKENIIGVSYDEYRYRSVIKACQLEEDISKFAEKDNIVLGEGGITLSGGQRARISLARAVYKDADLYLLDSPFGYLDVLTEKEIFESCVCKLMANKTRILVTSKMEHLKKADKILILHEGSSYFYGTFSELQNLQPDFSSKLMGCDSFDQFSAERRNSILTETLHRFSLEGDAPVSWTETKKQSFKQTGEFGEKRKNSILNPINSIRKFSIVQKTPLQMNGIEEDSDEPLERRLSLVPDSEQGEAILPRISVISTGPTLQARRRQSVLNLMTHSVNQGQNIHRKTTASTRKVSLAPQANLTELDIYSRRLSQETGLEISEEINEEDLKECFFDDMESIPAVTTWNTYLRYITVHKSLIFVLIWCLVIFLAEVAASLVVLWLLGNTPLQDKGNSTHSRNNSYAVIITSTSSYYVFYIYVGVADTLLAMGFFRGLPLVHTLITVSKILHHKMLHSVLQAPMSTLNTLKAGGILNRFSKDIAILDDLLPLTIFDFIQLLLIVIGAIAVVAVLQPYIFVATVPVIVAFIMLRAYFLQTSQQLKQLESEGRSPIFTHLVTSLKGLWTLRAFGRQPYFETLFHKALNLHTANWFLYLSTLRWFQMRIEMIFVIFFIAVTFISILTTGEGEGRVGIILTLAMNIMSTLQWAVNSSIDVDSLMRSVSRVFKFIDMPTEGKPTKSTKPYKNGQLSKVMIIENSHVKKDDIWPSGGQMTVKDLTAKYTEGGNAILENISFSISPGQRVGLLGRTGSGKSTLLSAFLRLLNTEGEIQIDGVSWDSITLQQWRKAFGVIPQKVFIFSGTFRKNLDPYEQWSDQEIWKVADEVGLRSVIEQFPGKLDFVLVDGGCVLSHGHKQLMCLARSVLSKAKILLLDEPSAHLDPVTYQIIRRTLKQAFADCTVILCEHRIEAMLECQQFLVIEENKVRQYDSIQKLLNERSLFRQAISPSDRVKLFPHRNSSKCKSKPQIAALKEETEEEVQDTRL

| Ent. B Max Activity (%) | EC50 (read-out: Ent. B EC50) [nM] | Ent. B Max Activity (%) (Table 10) | EC50 [1] [nM] | Compound |
| --- | --- | --- | --- | --- |
| +++ (+++ is >60%) | < 1000 | – | – | [H][C@]1(N2C(=O)c3cccc(c3)S(=O)(=O)Nc3nc(cc(-c4c(C)cccc4C)n3)OC[C@H]2CC2(C(F)(F)F)CC2)C[C@@]2(C[C@H](N(C)C)C2)C1 (stereo partly drawn) [Compound 298] |
| +++ (+++ is >60%) | < 1000 | – | – | Cc1cccc(C)c1-c1cc2nc(n1)NS(=O)(=O)c1cccc(c1)C(=O)N(C1CC3(CCN(CCOC(F)(F)F)CC3)C1)[C@H](CC(C)C)CO2 [Compound 299] |
| – | < 1000 | – | – | Cc1cccc(C)c1-c1cc2nc(n1)NS(=O)(=O)c1cccc(c1)C(=O)N(C1CC3(CCN(CCOC(C)C)CC3)C1)[C@H](CC(C)C)CO2 [Compound 300] |
| +++ (+++ is >60%) | < 1000 | – | – | Cc1cccc(C)c1-c1cc2nc(n1)NS(=O)(=O)c1cccc(c1)C(=O)N([C@H]1C[C@@H](N(C)C)C1)[C@H](CC(C)C)CO2 [Compound 302] |
| +++ (+++ is >60%) | < 1000 | – | – | CCCN1CCC2(CC1)CC(N1C(=O)c3cccc(c3)S(=O)(=O)Nc3nc(cc(-c4c(C)cccc4C)n3)OC[C@H]1CC(C)C)C2 [Compound 303] |
| +++ (+++ is >60%) | < 1000 | – | – | COC(=O)N[C@H]1CC2(C1)C[C@H](N1C(=O)c3cccc(c3)S(=O)(=O)Nc3nc(cc(-c4c(C)cccc4C)n3)OC[C@H]1CC(C)C)C2 (stereo partly drawn) [Compound 304] |
| +++ (+++ is >60%) | < 1000 | – | – | COC(=O)N[C@H]1CC2(C1)C[C@H](N1C(=O)c3cccc(c3)S(=O)(=O)Nc3nc(cc(-c4c(C)cccc4C)n3)OC[C@H]1CC(C)C)C2 (stereo partly drawn) [Compound 305] |
| +++ (+++ is >60%) | < 1000 | – | – | COCCN(C)C(=O)C1CC(N2C(=O)c3cccc(c3)S(=O)(=O)Nc3nc(cc(-c4c(C)cccc4C)n3)OC[C@H]2CC(C)C)C1 (stereo partly drawn) [Compound 306] |
| +++ (+++ is >60%) | < 1000 | – | – | Cc1cccc(C)c1-c1cc2nc(n1)NS(=O)(=O)c1cccc(c1)C(=O)N(C1CC(C(=O)N3CCOCC3)C1)[C@H](CC(C)C)CO2 (stereo partly drawn) [Compound 307] |
| +++ (+++ is >60%) | < 1000 | – | – | COC1CCN(C(=O)C2CC(N3C(=O)c4cccc(c4)S(=O)(=O)Nc4nc(cc(-c5c(C)cccc5C)n4)OC[C@H]3CC(C)C)C2)CC1 (stereo partly drawn) [Compound 308] |
| +++ (+++ is >60%) | < 1000 | – | – | COC1(C)CCN(C(=O)C2CC(N3C(=O)c4cccc(c4)S(=O)(=O)Nc4nc(cc(-c5c(C)cccc5C)n4)OC[C@H]3CC(C)C)C2)CC1 (stereo partly drawn) [Compound 309] |
| +++ (+++ is >60%) | < 1000 | – | – | CCOCCN1CCC2(CC1)CC(N1C(=O)c3cccc(c3)S(=O)(=O)Nc3nc(cc(-c4c(C)cccc4C)n3)OC[C@H]1CC(C)C)C2 [Compound 310] |
| +++ (+++ is >60%) | < 1000 | – | – | Cc1cccc(C)c1-c1cc2nc(n1)NS(=O)(=O)c1cccc(c1)C(=O)N(C1CC3(CCN(CC(F)F)CC3)C1)[C@H](CC(C)C)CO2 [Compound 322] |
| – | – | +++ (+++ is >60%) | < 1000 | Cc1cccc(C)c1-c1cc2nc(n1)NS(=O)(=O)c1cccc(c1)C(=O)N(C1CC3(CC(=O)C3)C1)[C@H](CC(C)(C)C)CO2 [Compound 352] |
| – | – | +++ (+++ is >60%) | < 1000 | CCC(=O)NC1CC2(C1)CC(N1C(=O)c3cccc(c3)S(=O)(=O)Nc3nc(cc(-c4c(C)cccc4C)n3)OC[C@H]1CC(C)(C)C)C2 (stereo partly drawn) [Compound 353] |
| – | – | +++ (+++ is >60%) | < 1000 | Cc1cccc(C)c1-c1cc2nc(n1)NS(=O)(=O)c1cccc(c1)C(=O)N(C1CC3(C1)CC(CO)(CO)C3)[C@H](CC(C)(C)C)CO2 [Compound 354] |
| – | – | +++ (+++ is >60%) | < 1000 | CCOC(=O)NC1CC2(C1)CC(N1C(=O)c3cccc(c3)S(=O)(=O)Nc3nc(cc(-c4c(C)cccc4C)n3)OC[C@H]1CC(C)(C)C)C2 (stereo partly drawn) [Compound 357] |
